Tests used:
[1] = tested on: GFP-FtsI expressing E. coli; assay: GFP-FtsI localization and morphology; type: cell-based; conditions: for localization of GFP-FtsI: vancomycin 34 μM, VanQAmC10 10 and 15 μM
Protocol: FtsI or PBP-3 is the only transpeptidase required for bacterial cell division and localizes to the septal ring.[37] It regulates the degree of cross-linking and coordinates the division process. GFP-tagged FtsI producing E. coli cells were treated with vancomycin (at 34 μM) and VanQAmC10 (at 10 μM and 15 μM; Fig. 5C) and then examined under the microscope. […] Upon treatment with 10 μM of VanQAmC10, larger phenotypes of variable sizes are observed with shape defects. Some cells appear filamentous like in the case of cephalexin. The GFP-FtsI protein appears as green fluorescent spots delocalized across the cell in 60% of the cells visualized. At a higher concentration of 15 μM, bulkier cells with more distorted shapes than those at 10 μM were observed (Fig. S5 ^†). […]
resuspended in prewarmed BMM media. 1:1 BAC light dye was then added to the bacterial suspension and incubated for 5 minutes. The fluorescence in the GFP and Texas red channels was then observed under the microscope. The experiments were performed three times independently and the images are representative of results from three independent experiments.
B. subtilis 1981 GFP-MinD was cultured overnight in BMM.8 Cells were then inoculated in xylose containing BMM instead of glucose to an OD500 of 0.1 to induce expression of the GFP-MinD fusion protein. Upon reaching an OD500 of 0.35, the cells were treated with test compounds at the PEC (vancomycin, VanQAmC10, VanQbiph) and 0.75 μg/mL (nisin) for 15 min. 0.5 μl of nonfixed, non-immobilized samples of the culture were imaged immediately in fluorescent mode (Olympus microscope with a U-LH100HGAPO burner and a U-RFL-T power supply). The experiments were performed three times independently and the images are representative of results from three independent experiments.
GFP-FtsI and GFP-FtsZ localization in E. coli […]
About 6 μl of sample was immobilized on 1% agarose pad . DIC and fluorescence images were obtained at different time intervals using Nikon Eclipse Ti Microscope equipped with Nikon DS-U3 camera through Plan Apo 100×/1.40 oil objective. […]

[2] = tested on: MRSA; assay: Resistance study, serial passaging at sub-MIC; type: cell-based, S. aureus; conditions: after 20 passages at sub-MIC
Protocol: Having observed the multiple mechanisms of VanQAmC10, the potential as a preclinical candidate was examined. […] The frequency of resistance for both vancomycin and VanQAmC10 against MRSA was <10^−8 indicating the absence of spontaneous mutants. […]
from 10 μg/mL. The bacteria with compounds and untreated control were incubated for 18 h at 37 ̊C under shaking and OD600 was measured.
Microscopy of ΔamiAC MG1655 E. coli
ΔamiAC MG1655 was cultured overnight in LB media at 37 ̊C. Cells were then inoculated in LB media at 1:100 dilution ratio and made to grow till O.D600 0.1. The cells were then treated with 4 μg/mL concentration of vancomycin and VanQAmC10 or left untreated for 2 h. […]
MRSA ATCC 33591 was grown to mid-log phase at 37 °C. […] The viable bacteria were then counted after 48 h incubation at 37 °C. […]
Antagonization of antibacterial activity of AAV-qC10 was determined by addition of 500 μM N,N՛-diacetyl–L-Lys–D-Ala–D-Ala or 100 μg/mL of lipoteichoic acid to serial dilutions of the test compound. The MIC was then determined against MRSA by measuring the OD600 18-24 […]
Vancomycin was chosen as control antibiotic for MRSA. The initial MIC values of VanQAmC10, vancomycin were determined against the respective bacteria. […]
The doses for administration, were given modified OECD guidelines. LD50 was determined using Spearman-Karber method. […]

| SMILES | localization of GFP-FtsI [1] | increase in MIC (resistance development) [2] | cells with delocalized GFP-FtsI ([1]; 10 μM) |
| --- | --- | --- | --- |
| CN[C@H](CC(C)C)C(=O)N[C@H]1C(=O)N[C@@H](CC(N)=O)C(=O)N[C@H]2C(=O)N[C@H]3C(=O)N[C@H](C(=O)N[C@H](C(=O)O)c4cc(O)cc(O)c4-c4cc3ccc4O)[C@H](O)c3ccc(c(Cl)c3)Oc3cc2cc(c3O[C@@H]2O[C@H](CO)[C@@H](O)[C@H](O)[C@H]2O[C@H]2C[C@](C)(N)[C@H](O)[C@H](C)O2)Oc2ccc(cc2Cl)[C@H]1O [Vancomycin, reference compound] | localization of FtsI at the septum | 2 fold | – |
| CCCCCCCCCCNC(=O)C[N+](C)(C)CCCNC(=O)C1NC(=O)C2NC(=O)C(NC(=O)C3NC(=O)C(CC(N)=O)NC(=O)C(NC(=O)C(CC(C)C)NC)C(O)c4ccc(c(Cl)c4)Oc4cc3cc(c4OC3OC(CO)C(O)C(O)C3OC3CC(C)(N)C(O)C(C)O3)Oc3ccc(cc3Cl)C2O)c2ccc(O)c(c2)-c2c(O)cc(O)cc21 (centres unmarked) [VanQAmC10 (8)] | mislocalizes the cell division protein, FtsI | lack of resistance development | 60% |

From paper PMC9977398, “Next-generation membrane-active glycopeptide antibiotics that also inhibit bacterial cell division” (Chemical Science, 2023)
